Calls of active or inactive are those of the source. The calls are words filed in the database; no cut-off is given here.
How the values were obtained:
[1] = tested on: A549; test: Cytotoxicity against human A549 cells by sulforhodamine B assay; format: functional, cell-based
[2] = tested on: HL-60; test: Cytotoxicity against human HL60 cells by sulforhodamine B assay; format: functional, cell-based
[3] = tested on: HeLa; test: Cytotoxicity against human HeLa cells by sulforhodamine B assay; format: functional, cell-based
[4] = biological target: T1, DNA topoisomerase 1 (Homo sapiens) (UniProt P11387); test: Inhibition of DNA topoisomerase 1 assessed as relaxation of supercoiled Escherichia coli pBR322 DNA at 100 uM
T1 sequence (whole entry): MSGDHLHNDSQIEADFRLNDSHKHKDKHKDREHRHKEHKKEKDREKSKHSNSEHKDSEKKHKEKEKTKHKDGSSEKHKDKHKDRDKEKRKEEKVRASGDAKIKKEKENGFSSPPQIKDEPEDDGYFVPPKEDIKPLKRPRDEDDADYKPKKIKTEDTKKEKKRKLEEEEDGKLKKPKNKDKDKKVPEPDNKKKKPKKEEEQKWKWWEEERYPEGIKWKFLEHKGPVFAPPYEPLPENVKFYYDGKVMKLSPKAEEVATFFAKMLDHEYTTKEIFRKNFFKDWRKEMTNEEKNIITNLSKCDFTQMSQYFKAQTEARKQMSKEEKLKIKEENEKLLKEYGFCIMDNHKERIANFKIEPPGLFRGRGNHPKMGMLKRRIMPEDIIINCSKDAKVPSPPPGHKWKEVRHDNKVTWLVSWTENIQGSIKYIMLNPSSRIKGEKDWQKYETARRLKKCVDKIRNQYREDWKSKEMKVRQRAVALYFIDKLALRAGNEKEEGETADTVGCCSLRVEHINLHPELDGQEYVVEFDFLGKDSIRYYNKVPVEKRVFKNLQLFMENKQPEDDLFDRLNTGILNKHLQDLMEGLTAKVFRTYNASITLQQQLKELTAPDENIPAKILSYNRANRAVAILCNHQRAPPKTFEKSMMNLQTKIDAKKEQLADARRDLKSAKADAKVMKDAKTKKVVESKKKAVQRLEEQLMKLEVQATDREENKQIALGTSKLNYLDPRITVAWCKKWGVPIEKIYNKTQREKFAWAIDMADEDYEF

Compound | IC50 [1] [µM] | IC50 [2] [µM] | IC50 [3] [µM] | inhibition [4]
CC1Oc2ccccc2-c2c1c1ccccc1c(=O)n2C (stereo unspecified) | 65.5 | 30.1 | 40.1 | inactive
COc1ccc(Cn2c3c(c4cc(C)ccc4c2=O)CCOc2ccccc2-3)cc1 | > 100 | 9.26 | 10.3 | inactive
COCOc1ccccc1-c1cc2cc(C)ccc2c(=O)n1C | 99.8 | 14.3 | 28.6 | inactive
Cc1ccc2c(=O)n(C)c3c(c2c1)CCOc1ccccc1-3 | 61.3 | 33.6 | 41.6 | inactive
C=COc1ccccc1-c1c(Br)c2cc(C)ccc2c(=O)n1Cc1ccc(OC)cc1 | 67.8 | 29.2 | 14.8 | inactive
COc1ccc(Cn2c3c(c4ccc(C)cc4c2=O)CCOc2ccccc2-3)cc1 | 4.56 | 4.4 | 4.54 | inactive
COc1ccc(Cn2c(-c3ccccc3O)c(Br)c3cc(C)ccc3c2=O)cc1 | 53 | 24.4 | 20.4 | inactive
Cc1ccc2c3c(n(C)c(=O)c2c1)-c1ccccc1OC3C (stereo unspecified) | 66.9 | – | 21.9 | inactive
COc1cc2c3c(n(C)c(=O)c2cc1OC)-c1ccccc1OC3C (stereo unspecified) | 13.8 | 8.54 | 9.02 | 5.3%
COc1ccc(Cn2c(-c3ccccc3O)c(Br)c3ccccc3c2=O)cc1 | 71.2 | 31.6 | 36.8 | inactive
Cc1ccc2c3c(n(C)c(=O)c2c1)-c1ccccc1OCC3 | 30.3 | 14.1 | 8.76 | 11.9%
COCOc1ccccc1-c1cc2cc(C)ccc2c(=O)[nH]1 | > 100 | 0.16 | 0.17 | inactive
COCOc1ccccc1-c1c(Br)c2ccc(C)cc2c(=O)n1C | 82 | 17.2 | 17.8 | inactive
COc1ccc(Cn2c3c(c4ccccc4c2=O)CCOc2ccccc2-3)cc1 | 11 | 4.49 | 4.78 | 94.5%
COc1cc2c3c(n(C)c(=O)c2cc1OC)-c1ccccc1OCC3 | 73 | 34.8 | 38.1 | 98.2%
Cc1ccc2c(=O)n(C)c3c(c2c1)C(C)Oc1ccccc1-3 (stereo unspecified) | 46 | 29.1 | 28.3 | 30.4%
COCOc1ccccc1-c1c(Br)c2cc(OC)c(OC)cc2c(=O)n1C | > 100 | 37.8 | 99.3 | 40.7%
CC[C@@]1(O)C(=O)OCc2c1cc1n(c2=O)Cc2cc3ccccc3nc2-1 [CAMPTOTHECIN] | 0.058 | 0.089 | 0.072 | –
Cn1c2c(c3ccccc3c1=O)CCOc1ccccc1-2 | 66.8 | 37.6 | 19.7 | inactive
COCOc1ccccc1-c1cc2ccccc2c(=O)[nH]1 | 23.6 | 0.62 | 0.62 | inactive
COCOc1ccccc1-c1cc2ccccc2c(=O)n1C | > 100 | 59.5 | 64.6 | inactive
C=COc1ccccc1-c1c(Br)c2ccccc2c(=O)n1Cc1ccc(OC)cc1 | > 100 | 59.5 | 36.5 | inactive
